Reference: PubChem BioAssay (NCI)
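Cultured in 96-well plates, cells were exposed to test compound for 48 hours across five concentrations. The concentration for 50% growth inhibition is given as GI50. TGI is the concentration that stops growth completely.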

Key:
Experiment in all cases: NCI-60 cell line screen, 48 h
NCI-H23 lung = test system: NCI-H23 lung
A549 NSCLC = test system: A549 NSCLC
SN12C renal = test system: SN12C renal
SW-620 colon = test system: SW-620 colon
PC-3 prostate = test system: PC-3 prostate
SF-295 CNS = test system: SF-295 CNS
COLO 205 colon = test system: COLO 205 colon
CAKI-1 renal = test system: CAKI-1 renal
OVCAR-8 ovarian = test system: OVCAR-8 ovarian
SNB-19 CNS = test system: SNB-19 CNS
K-562 leukemia = test system: K-562 leukemia
A498 renal = test system: A498 renal
M14 melanoma = test system: M14 melanoma
SF-539 CNS = test system: SF-539 CNS
OVCAR-3 ovarian = test system: OVCAR-3 ovarian
UACC-257 melanoma = test system: UACC-257 melanoma
KM12 colon = test system: KM12 colon
T-47D breast = test system: T-47D breast
BT-549 breast = test system: BT-549 breast
NCI-H522 lung = test system: NCI-H522 lung
TK-10 renal = test system: TK-10 renal
UO-31 renal = test system: UO-31 renal
SK-OV-3 ovarian = test system: SK-OV-3 ovarian
SK-MEL-2 melanoma = test system: SK-MEL-2 melanoma
HOP-92 NSCLC = test system: HOP-92 NSCLC
RPMI-8226 leukemia = test system: RPMI-8226 leukemia
U251 CNS = test system: U251 CNS
SF-268 CNS = test system: SF-268 CNS
MDA-MB-435 = test system: MDA-MB-435
HT29 colon = test system: HT29 colon
DU-145 prostate = test system: DU-145 prostate
HS 578T breast = test system: HS 578T breast
HCT-15 colon = test system: HCT-15 colon
NCI-H226 lung = test system: NCI-H226 lung
SNB-75 CNS = test system: SNB-75 CNS
EKVX NSCLC = test system: EKVX NSCLC
MCF7 breast = test system: MCF7 breast
MALME-3M melanoma = test system: MALME-3M melanoma
SK-MEL-5 melanoma = test system: SK-MEL-5 melanoma
ACHN renal = test system: ACHN renal
OVCAR-5 ovarian = test system: OVCAR-5 ovarian
MOLT-4 leukemia = test system: MOLT-4 leukemia
CCRF-CEM leukemia = test system: CCRF-CEM leukemia
IGROV1 ovarian = test system: IGROV1 ovarian
786-0 renal = test system: 786-0 renal
LOX IMVI melanoma = test system: LOX IMVI melanoma
NCI-H460 lung = test system: NCI-H460 lung
MDA-MB-231 breast = test system: MDA-MB-231 breast
OVCAR-4 ovarian = test system: OVCAR-4 ovarian
NCI/ADR-RES ovarian = test system: NCI/ADR-RES ovarian
HOP-62 NSCLC = test system: HOP-62 NSCLC
HCC-2998 colon = test system: HCC-2998 colon
RXF 393 renal = test system: RXF 393 renal
SR leukemia = test system: SR leukemia
HL-60(TB) leukemia = test system: HL-60(TB) leukemia
UACC-62 melanoma = test system: UACC-62 melanoma
SK-MEL-28 melanoma = test system: SK-MEL-28 melanoma
HCT-116 colon = test system: HCT-116 colon

## C#CC(=O)N(c1ccc(OC)cc1OC)C(C(=O)NCC(=O)OCC)c1cccs1 (stereo unspecified)
NCI-H23 lung
  GI50: 257 nM
  TGI: 1070 nM
A549 NSCLC
  GI50: 5560 nM
  TGI: 31700 nM
SN12C renal
  GI50: 2210 nM
  TGI: 16500 nM
SW-620 colon
  GI50: 1270 nM
  TGI: 3050 nM
PC-3 prostate
  GI50: 871 nM
  TGI: 7880 nM
SF-295 CNS
  GI50: 183 nM
  TGI: 362 nM
COLO 205 colon
  GI50: 1810 nM
  TGI: 3740 nM
CAKI-1 renal
  GI50: 187 nM
  TGI: 901 nM
OVCAR-8 ovarian
  GI50: 970 nM
  TGI: 17900 nM
SNB-19 CNS
  GI50: 2420 nM
  TGI: 8080 nM
K-562 leukemia
  GI50: 594 nM
  TGI: 2960 nM
A498 renal
  GI50: 215 nM
  TGI: 541 nM
M14 melanoma
  GI50: 1880 nM
  TGI: 4540 nM
SF-539 CNS
  GI50: 56.7 nM
  TGI: 110 nM
OVCAR-3 ovarian
  GI50: 160 nM
  TGI: 528 nM
UACC-257 melanoma
  GI50: 3290 nM
  TGI: 13000 nM
KM12 colon
  GI50: 372 nM
  TGI: 2240 nM
T-47D breast
  GI50: 2010 nM
  TGI: 5100 nM
BT-549 breast
  GI50: 318 nM
  TGI: 1190 nM
NCI-H522 lung
  GI50: 83.1 nM
  TGI: 258 nM
TK-10 renal
  GI50: 3960 nM
  TGI: 10700 nM
UO-31 renal
  GI50: 16.7 nM
  TGI: 33.9 nM
SK-OV-3 ovarian
  GI50: 1820 nM
  TGI: 3400 nM
SK-MEL-2 melanoma
  GI50: 11000 nM
  TGI: 26200 nM
HOP-92 NSCLC
  GI50: 31.3 nM
  TGI: 110 nM
RPMI-8226 leukemia
  GI50: 44.9 nM
  TGI: 193 nM
U251 CNS
  GI50: 445 nM
  TGI: 1260 nM
SF-268 CNS
  GI50: 326 nM
  TGI: 1170 nM
MDA-MB-435
  GI50: 3800 nM
  TGI: 16200 nM
HT29 colon
  GI50: 241 nM
  TGI: 610 nM
DU-145 prostate
  GI50: 436 nM
  TGI: 4020 nM
HS 578T breast
  GI50: 444 nM
  TGI: 3260 nM
HCT-15 colon
  GI50: 759 nM
  TGI: 2390 nM
NCI-H226 lung
  GI50: 11300 nM
  TGI: 38000 nM
SNB-75 CNS
  GI50: 152 nM
  TGI: 399 nM
EKVX NSCLC
  GI50: 260 nM
  TGI: 1320 nM
MCF7 breast
  GI50: 2040 nM
  TGI: 9100 nM
MALME-3M melanoma
  GI50: 66 nM
  TGI: 164 nM
SK-MEL-5 melanoma
  GI50: 8820 nM
  TGI: 21300 nM
ACHN renal
  GI50: 114 nM
  TGI: 1250 nM
OVCAR-5 ovarian
  GI50: 574 nM
  TGI: 2330 nM
MOLT-4 leukemia
  GI50: 375 nM
  TGI: 1950 nM
CCRF-CEM leukemia
  GI50: 27.7 nM
  TGI: 81 nM
IGROV1 ovarian
  GI50: 30 nM
  TGI: 97.9 nM
786-0 renal
  GI50: 19.1 nM
  TGI: 38.9 nM
LOX IMVI melanoma
  GI50: < 12.5 nM
  TGI: < 18.5 nM
NCI-H460 lung
  GI50: 717 nM
  TGI: 6840 nM
MDA-MB-231 breast
  GI50: 173 nM
  TGI: 1140 nM
OVCAR-4 ovarian
  GI50: 1750 nM
  TGI: 3970 nM
NCI/ADR-RES ovarian
  GI50: 177 nM
  TGI: 813 nM
HOP-62 NSCLC
  GI50: 436 nM
  TGI: 2280 nM
HCC-2998 colon
  GI50: 4980 nM
  TGI: 17700 nM
RXF 393 renal
  GI50: 271 nM
  TGI: 1010 nM
SR leukemia
  GI50: 22 nM
  TGI: 52.8 nM
HL-60(TB) leukemia
  GI50: 18.7 nM
  TGI: 38.7 nM
UACC-62 melanoma
  GI50: 1470 nM
  TGI: 5810 nM
SK-MEL-28 melanoma
  GI50: 2260 nM
  TGI: 6030 nM
HCT-116 colon
  GI50: 1580 nM
  TGI: 3420 nM
